According to PubChem BioAssay (NCI):
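48-hour exposure; five concentrations; linearly interpolated endpoints. The concentration for full growth arrest is given as TGI.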

How the values were obtained:
Assay in all cases: NCI anticancer screen, dose series, 48 h
SF-295 CNS = system: SF-295 CNS
OVCAR-5 ovarian = system: OVCAR-5 ovarian
SK-MEL-28 melanoma = system: SK-MEL-28 melanoma
HOP-62 NSCLC = system: HOP-62 NSCLC
SK-MEL-2 melanoma = system: SK-MEL-2 melanoma
BT-549 breast = system: BT-549 breast
MDA-MB-435 = system: MDA-MB-435
HT29 colon = system: HT29 colon
HOP-92 NSCLC = system: HOP-92 NSCLC
K-562 leukemia = system: K-562 leukemia
NCI/ADR-RES ovarian = system: NCI/ADR-RES ovarian
MDA-MB-231 breast = system: MDA-MB-231 breast
HCT-116 colon = system: HCT-116 colon
SK-MEL-5 melanoma = system: SK-MEL-5 melanoma
CCRF-CEM leukemia = system: CCRF-CEM leukemia
PC-3 prostate = system: PC-3 prostate
HS 578T breast = system: HS 578T breast
MCF7 breast = system: MCF7 breast
OVCAR-8 ovarian = system: OVCAR-8 ovarian
SNB-75 CNS = system: SNB-75 CNS
MOLT-4 leukemia = system: MOLT-4 leukemia
LOX IMVI melanoma = system: LOX IMVI melanoma
SNB-19 CNS = system: SNB-19 CNS
HCC-2998 colon = system: HCC-2998 colon
DU-145 prostate = system: DU-145 prostate
SN12C renal = system: SN12C renal
KM12 colon = system: KM12 colon
NCI-H226 lung = system: NCI-H226 lung
EKVX NSCLC = system: EKVX NSCLC
COLO 205 colon = system: COLO 205 colon
ACHN renal = system: ACHN renal
NCI-H23 lung = system: NCI-H23 lung
NCI-H522 lung = system: NCI-H522 lung
CAKI-1 renal = system: CAKI-1 renal
RPMI-8226 leukemia = system: RPMI-8226 leukemia
IGROV1 ovarian = system: IGROV1 ovarian
U251 CNS = system: U251 CNS
T-47D breast = system: T-47D breast
OVCAR-4 ovarian = system: OVCAR-4 ovarian
HCT-15 colon = system: HCT-15 colon
SW-620 colon = system: SW-620 colon
UACC-62 melanoma = system: UACC-62 melanoma
SK-OV-3 ovarian = system: SK-OV-3 ovarian
MALME-3M melanoma = system: MALME-3M melanoma
M14 melanoma = system: M14 melanoma
MDA-N = system: MDA-N
OVCAR-3 ovarian = system: OVCAR-3 ovarian
SF-539 CNS = system: SF-539 CNS
SF-268 CNS = system: SF-268 CNS
786-0 renal = system: 786-0 renal
NCI-H460 lung = system: NCI-H460 lung
TK-10 renal = system: TK-10 renal
UO-31 renal = system: UO-31 renal
UACC-257 melanoma = system: UACC-257 melanoma
A549 NSCLC = system: A549 NSCLC

## COc1ccc2c(c1)-c1[nH]c3ccccc3c1CC2
SF-295 CNS
  TGI: 27.3 µM
OVCAR-5 ovarian
  TGI: 29 µM
SK-MEL-28 melanoma
  TGI: 32.1 µM
HOP-62 NSCLC
  TGI: 30.8 µM
SK-MEL-2 melanoma
  TGI: 29.4 µM
BT-549 breast
  TGI: 31.3 µM
MDA-MB-435
  TGI: 31.7 µM
HT29 colon
  TGI: 22.9 µM
HOP-92 NSCLC
  TGI: 31.8 µM
K-562 leukemia
  TGI: > 100 µM
NCI/ADR-RES ovarian
  TGI: 24.3 µM
MDA-MB-231 breast
  TGI: 33.8 µM
HCT-116 colon
  TGI: 31.8 µM
SK-MEL-5 melanoma
  TGI: 28.2 µM
CCRF-CEM leukemia
  TGI: 50.8 µM
PC-3 prostate
  TGI: 29.6 µM
HS 578T breast
  TGI: 30.6 µM
MCF7 breast
  TGI: 29.7 µM
OVCAR-8 ovarian
  TGI: 25.1 µM
SNB-75 CNS
  TGI: 28.9 µM
MOLT-4 leukemia
  TGI: 36.2 µM
LOX IMVI melanoma
  TGI: 36.3 µM
SNB-19 CNS
  TGI: 30.9 µM
HCC-2998 colon
  TGI: 23.6 µM
DU-145 prostate
  TGI: 33.5 µM
SN12C renal
  TGI: 29.9 µM
KM12 colon
  TGI: 26.8 µM
NCI-H226 lung
  TGI: 26.2 µM
EKVX NSCLC
  TGI: 21.9 µM
COLO 205 colon
  TGI: 32.3 µM
ACHN renal
  TGI: 32.3 µM
NCI-H23 lung
  TGI: 26.9 µM
NCI-H522 lung
  TGI: 20.3 µM
CAKI-1 renal
  TGI: 29.4 µM
RPMI-8226 leukemia
  TGI: 71.2 µM
IGROV1 ovarian
  TGI: 18.8 µM
U251 CNS
  TGI: 30.8 µM
T-47D breast
  TGI: 29.1 µM
OVCAR-4 ovarian
  TGI: 32.4 µM
HCT-15 colon
  TGI: 29.6 µM
SW-620 colon
  TGI: 31.6 µM
UACC-62 melanoma
  TGI: 29.4 µM
SK-OV-3 ovarian
  TGI: 33.6 µM
MALME-3M melanoma
  TGI: 25.6 µM
M14 melanoma
  TGI: 31.5 µM
MDA-N
  TGI: 31.6 µM
OVCAR-3 ovarian
  TGI: 33.2 µM
SF-539 CNS
  TGI: 31.2 µM
SF-268 CNS
  TGI: 28.4 µM
786-0 renal
  TGI: 32.2 µM
NCI-H460 lung
  TGI: 29.9 µM
TK-10 renal
  TGI: 31.7 µM
UO-31 renal
  TGI: 29.5 µM
UACC-257 melanoma
  TGI: 30.8 µM
A549 NSCLC
  TGI: 30.4 µM
